Our source for the TGI and GI50 values is PubChem BioAssay (NCI).

SMILES strings stand for the structures. Values joined by “and” are separate entries in the source; they are usually repeats but may differ in a detail not shown here. Identical values can stand only once.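 Cells were grown in 96-well plates and exposed to each compound for 48 hours at five concentrations; endpoints were interpolated linearly between bracketing concentrations, or set to the highest concentration if not reached. GI50: concentration for 50% inhibition of growth. TGI denotes the concentration required for complete inhibition of growth.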

Among the test systems are BT-549 breast; CAKI-1 renal; CCRF-CEM leukemia; COLO 205 colon; IGROV1 ovarian; OVCAR-8 ovarian; SK-MEL-28 melanoma; TK-10 renal; U251 CNS; HCC-2998 colon.
Experiment in all cases: growth of human tumour cells (NCI), 48 h

On to `Nc1ccc2[nH]cc(CCC(=O)O)c2c1`, for which the TGI is over 100 µM with BT-549 breast; over 100 µM in the assay with CAKI-1 renal; 32.9 µM in the assay with CCRF-CEM leukemia; over 100 µM with COLO 205 colon; over 100 µM in the assay with IGROV1 ovarian; over 100 µM in the assay with OVCAR-8 ovarian. Also, the TGI with SK-MEL-28 melanoma, with TK-10 renal and in the assay with U251 CNS was over 100 µM throughout.
As for `Nc1nc(N)nc(CCCc2nc(N)nc(N)n2)n1`, the TGI in the assay with BT-549 breast, in the assay on CAKI-1 renal, in the assay with CCRF-CEM leukemia, in the assay with COLO 205 colon, in the assay on IGROV1 ovarian and with OVCAR-8 ovarian was over 100 µM each time. Moreover, the TGI with SK-MEL-28 melanoma, in the assay on TK-10 renal and in the assay with U251 CNS was over 100 µM in each case.
Consider `Cc1ncc([N+](=O)[O-])n1CCNS(=O)(=O)CCCn1ncnc1[N+](=O)[O-]`, for which the TGI in the assay on BT-549 breast, with CAKI-1 renal, with CCRF-CEM leukemia, in the assay on COLO 205 colon, with IGROV1 ovarian and in the assay with OVCAR-8 ovarian was over 100 µM throughout. Besides, the TGI in the assay with SK-MEL-28 melanoma, in the assay with TK-10 renal and with U251 CNS was over 100 µM throughout.
Regarding `CC1=C(c2cc(C(=O)Nc3ccc(Cl)cc3)nc(=S)[nH]2)Sc2ccccc2N1`, the TGI with CAKI-1 renal, in the assay on CCRF-CEM leukemia, in the assay on COLO 205 colon, in the assay on HCC-2998 colon, in the assay with IGROV1 ovarian and in the assay on OVCAR-8 ovarian was over 100 µM throughout. In addition, the TGI in the assay on SK-MEL-28 melanoma, in the assay on TK-10 renal and with U251 CNS was over 100 µM in each case.
`Cc1cccc(C(C)C)c1NC(=O)C(=O)C(C(=O)c1ccccc1F)C1OC(=O)c2ccccc21` (configuration not stated): the TGI with CAKI-1 renal was found to be 70.5 µM; in the assay on CCRF-CEM leukemia, 41 µM; with COLO 205 colon, 41 µM; in the assay on HCC-2998 colon, 26.6 µM; in the assay on IGROV1 ovarian it was 77.9 µM; in the assay on OVCAR-8 ovarian, 59.7 µM. Also, the values for the TGI with SK-MEL-28 melanoma, in the assay on TK-10 renal and with U251 CNS were 53.7 µM, 91.1 µM and 37.3 µM, respectively.
With `CC(C(=O)n1c2ccccc2c2ccccc21)N(c1ccccc1)c1ccccc1` (configuration not stated), the TGI in the assay on CAKI-1 renal was determined as 27.7 µM; in the assay with CCRF-CEM leukemia, 4.02 µM; in the assay on COLO 205 colon, 32 µM; in the assay with HCC-2998 colon it was 30.1 µM; in the assay on IGROV1 ovarian it was 32.6 µM; in the assay with OVCAR-8 ovarian it was 37.7 µM. Moreover, the TGI in the assay with SK-MEL-28 melanoma turned out to be 34.4 µM; in the assay on TK-10 renal, 34.5 µM; in the assay with U251 CNS it was 34.7 µM.
For the molecule `O=C(O)CSc1n[nH]c(Cc2ccccc2)n1`, the TGI with CAKI-1 renal, with CCRF-CEM leukemia, with HCC-2998 colon, with IGROV1 ovarian, in the assay with OVCAR-8 ovarian and in the assay with SK-MEL-28 melanoma was over 100 µM throughout. Besides, the TGI in the assay with TK-10 renal and in the assay with U251 CNS was over 100 µM each time.
For the molecule `Clc1ccc(N=CNc2ccc(-c3nc4ccccc4o3)cc2)cc1`, the GI50 in the assay on BT-549 breast was 18.7 µM; in the assay on CAKI-1 renal, 15.5 µM; in the assay with COLO 205 colon, 22.7 µM; in the assay on IGROV1 ovarian, 84.2 µM; in the assay with OVCAR-8 ovarian, 21.1 µM; in the assay with TK-10 renal, 21 µM. For the same molecule, the GI50 in the assay with U251 CNS is 23.4 µM. Moreover, the TGI in the assay on BT-549 breast is 43.6 µM; with CAKI-1 renal, 39.2 µM; with COLO 205 colon, over 100 µM; with IGROV1 ovarian it was over 100 µM; in the assay with OVCAR-8 ovarian it was 40.9 µM; in the assay with TK-10 renal, 54.2 µM. Further, the TGI with U251 CNS was 91.3 µM.
`COc1cc(C2C(C(=O)Nc3cc(F)c(F)cc3F)=C(C)NC(C)=C2C(=O)Nc2cc(F)c(F)cc2F)ccc1O`: the TGI in the assay with CAKI-1 renal is 42.8 µM; in the assay on CCRF-CEM leukemia it was 45.6 µM; in the assay on COLO 205 colon, over 100 µM; in the assay with HCC-2998 colon it was 33.4 µM; in the assay with IGROV1 ovarian, over 100 µM; in the assay on OVCAR-8 ovarian, 96.7 µM. Further, the TGI with SK-MEL-28 melanoma is over 100 µM; with TK-10 renal, 87.9 µM; in the assay with U251 CNS, over 100 µM.
`CCOC(=O)/C(=C/c1cccc(C#N)c1)N(CC)CC`: the TGI in the assay with CAKI-1 renal, in the assay on CCRF-CEM leukemia, in the assay on COLO 205 colon, in the assay on HCC-2998 colon, with IGROV1 ovarian and in the assay on OVCAR-8 ovarian was over 100 µM throughout. Also, the TGI in the assay with SK-MEL-28 melanoma, in the assay with TK-10 renal and in the assay with U251 CNS was over 100 µM throughout.
As to `O=c1nc(-c2ccccc2)cc(-c2ccccc2O)[nH]1`, the TGI with CAKI-1 renal, in the assay with CCRF-CEM leukemia, with COLO 205 colon, in the assay with HCC-2998 colon, in the assay with IGROV1 ovarian and in the assay with OVCAR-8 ovarian was over 100 µM each time. Also, the TGI with SK-MEL-28 melanoma, in the assay on TK-10 renal and in the assay on U251 CNS was over 100 µM throughout.
For the molecule `CCOc1ccccc1NC(=O)C(C#N)C1=C(Cl)C(=O)c2ccccc2C1=O` (configuration not stated), the GI50 is 1.81 µM in the assay on CAKI-1 renal; 3.15 µM in the assay with CCRF-CEM leukemia; 12.6 µM in the assay with COLO 205 colon; 12.3 µM in the assay on HCC-2998 colon; 1.92 µM with OVCAR-8 ovarian; 12.3 µM with TK-10 renal. Also, the GI50 in the assay on U251 CNS was 1.95 µM. For the same molecule, the TGI in the assay on CAKI-1 renal is 5 µM and 3.29 µM; with COLO 205 colon, 3.43 µM and 27.9 µM; in the assay with HCC-2998 colon, 3.15 µM and 25.6 µM; with IGROV1 ovarian, 5.31 µM; with OVCAR-8 ovarian, 2.06 µM and 4.59 µM; in the assay with SK-MEL-28 melanoma, 3.62 µM. Besides, the TGI is 3.84 µM and 25.8 µM with TK-10 renal; 3.14 µM and 3.82 µM with U251 CNS.
Turning to `O=[N+]([O-])c1ccc(CSCc2ccc(Cl)cc2)cc1`, the TGI was over 100 µM with BT-549 breast; over 100 µM with CAKI-1 renal; 38.7 µM with CCRF-CEM leukemia; over 100 µM in the assay on COLO 205 colon; over 100 µM in the assay on IGROV1 ovarian; over 100 µM in the assay on OVCAR-8 ovarian. Besides, the TGI in the assay with SK-MEL-28 melanoma, with TK-10 renal and with U251 CNS was over 100 µM each time.
